# What was measured:
# [1] = tested on: 5×FAD Alzheimer's dementia-induced mice; test: Immunohistochemistry of gliosis (IBA-1, GFAP) in brain tissue; assay type: in vivo, mouse; details: cerebral cortex and hippocampus, IBA-1 and GFAP staining, 5×FAD mice, DTMB 10 mg/kg orally
# Procedure: The degree of gliosis was confirmed through immunochemical analysis using antibodies against IBA-1, a specific protein of microglia, and GFAP, a specific protein of astrocytes. Specifically, immunohistochemistry was performed in the same manner as in Example 6-1 using anti-Iba1 antibody (Wako, Japan, 1:200) and anti-GFAP antibody (Abcam, Cambridge, UK, 1:200) as primary antibodies.
# BV2 microglial cell line = test: Cytokine ELISA in BV2 microglia; assay type: cell-based, mouse; details: BV2 treated with LPS or Aβ aggregates, DTMB 24 h
# Procedure: To confirm a more clear anti-inflammatory effect, the microglia cell line (BV2) and microglia isolated from mice were treated with lipopolysaccharide (LPS) and Aβ aggregates to induce an inflammatory response, and then DTMB was treated to measure the decrease in cytokine levels in microglia by DTMB treatment using ELISA.
# The BV2 mouse microglia cell line was provided by Professor Seok Kyung-ho of Kyungpook National University. BV2 cells were cultured in a 5% CO2 incubator with a humidified atmosphere at 37° C. with Dulbecco's Modified Eagle Medium (DMEM) (Hyclone, Logan, UT, USA) containing 5% fetal bovine serum (FBS, Hyclone) and 50 μg/mL gentamicin (Lonza, Switzerland).
# Cytokine levels (TNF-α, IL-1β, and IL-6) were measured in the media of BV2 microglia and primary microglia treated with LPS (1 μg/mL) and human Aβ1-42 (5 μg/mL). Human Aβ1-42 (AnaSpec, Fremont, CA, USA) was pre-aggregated in the culture medium for 24 h before cell treatment. BV2 cells and primary microglia were seeded in 12-well plates (SPL) at a density of 1× 10^5 cells/well in 1 mL of complete medium. After 12 h, cells were treated with LPS or human Aβ1-42 and further cultured with DTMB for 24 h. […]
smiles,measurement,setting,value
"COc1ccc(-c2cc(=O)oc3c(C)c(OC(=O)[C@H](Cc4c[nH]c5ccccc45)NC(=O)OC(C)(C)C)ccc23)cc1 [DTMB, [4-(4-Methoxyphenyl)-8-methyl-2-oxochromen-7-yl](2S)-3-(1H-indol-3-yl)-2-[(2-methylpropan-2-yl)oxycarbonylamino]propanoate]",Hyperactivity of microglia and astrocytes (gliosis),[1],significantly reduced
same,Level of IL-6,BV2 microglial cell line,statistically significantly reduced
same,Level of TNF-α,BV2 microglial cell line,statistically significantly reduced
